This is an account of results in the supplement of paper PMC10627819.

Holding throughout (assay): Bliss interaction score (quartile over a dose matrix) (fitness difference); higher = more antagonism (negative = synergy)
Assay [1] relates to S. pneumoniae D39V. The method in brief:
(§1)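 The Bliss score is observed minus expected fitness under the product model, reported as quartiles over technical, biological and donor/recipient replicates. Fitness is the OD595 at entry into stationary phase divided by the plate's robust no-drug mean and capped at 1. Single-drug fitness was inferred from combination data.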

The subject of assay [2] is S. aureus Newman. An outline of the steps: as §1
Assay [3] concerns S. aureus DSM 20231. The method in brief: as §1
The subject of assay [4] is B. subtilis 168. The method in brief: as §1
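Further: first quartile when negative (synergy) and third quartile when positive (antagonism).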

On to `C[C@H]1c2cccc(O)c2C(=O)C2=C(O)[C@]3(O)C(=O)C(C(N)=O)=C(O)[C@@H](N(C)C)[C@@H]3[C@@H](O)[C@@H]21` [Doxycycline] + CC(=O)O[C@H]1C[C@@]2(C)[C@@H](C[C@@H](O)[C@H]3[C@@]4(C)CC[C@@H](O)[C@@H](C)[C@@H]4CC[C@@]32C)/C1=C(\CCC=C(C)C)C(=O)O [Fusidic acid], for which the Bliss interaction score was -0.0559 in assay [1], 0.0131 in assay [2], -0.0196 in assay [3] and -0.049 in assay [4].
`C[C@H]1c2cccc(O)c2C(=O)C2=C(O)[C@]3(O)C(=O)C(C(N)=O)=C(O)[C@@H](N(C)C)[C@@H]3[C@@H](O)[C@@H]21` [Doxycycline] + CCCCCCCCCC(=O)N[C@@H]1[C@H]([C@@H]([C@H](O[C@H]1OC2=C3C=C4C=C2OC5=C(C=C(C=C5)[C@H]([C@H]6C(=O)N[C@@H](C7=C(C(=CC(=C7)O)OC8[C@H]([C@H]([C@@H]([C@H](O8)CO)O)O)O)C9=C(C=CC(=C9)[C@H](C(=O)N6)NC(=O)[C@@H]4NC(=O)[C@@H]1C2=CC(=CC(=C2)OC2=C(C=CC(=C2)[C@H](C(=O)N[C@H](CC2=CC(=C(O3)C=C2)Cl)C(=O)N1)N)O)O)O)C(=O)O)O[C@H]1[C@@H]([C@H]([C@@H]([C@H](O1)CO)O)O)NC(=O)C)Cl)CO)O)O [Teicoplanin]: the Bliss interaction score is -0.0489 in assay [1] (main component drawn), 0.0478 in assay [2] (main component drawn), 0.118 in assay [3] (main component drawn) and 0.0442 in assay [4] (main component drawn).
Take `C[C@H]1c2cccc(O)c2C(=O)C2=C(O)[C@]3(O)C(=O)C(C(N)=O)=C(O)[C@@H](N(C)C)[C@@H]3[C@@H](O)[C@@H]21` [Doxycycline] + CC[C@H]1OC(=O)[C@H](C)C(=O)[C@H](C)[C@@H](O[C@@H]2O[C@H](C)C[C@H](N(C)C)[C@H]2O)[C@](C)(OC)C[C@@H](C)C(=O)[C@H](C)[C@H]2N(CCCCn3cnc(-c4cccnc4)c3)C(=O)O[C@]12C [Telithromycin]: the Bliss interaction score in assay [1] was -0.261; in assay [2] it was -0.0224; in assay [3], -0.0892; in assay [4], -0.326.
`C[C@H]1c2cccc(O)c2C(=O)C2=C(O)[C@]3(O)C(=O)C(C(N)=O)=C(O)[C@@H](N(C)C)[C@@H]3[C@@H](O)[C@@H]21` [Doxycycline] + CC[C@H]1OC(=O)[C@H](C)[C@@H](O[C@H]2C[C@@](C)(OC)[C@@H](O)[C@H](C)O2)[C@H](C)[C@@H](O[C@@H]2O[C@H](C)C[C@H](N(C)C)[C@H]2O)[C@](C)(O)C[C@@H](C)C(=O)[C@H](C)[C@@H](O)[C@]1(C)O [Erythromycin]: the Bliss interaction score is -0.161 in assay [1], -0.0251 in assay [2], -0.0389 in assay [3] and -0.162 in assay [4].
For `C[C@H]1c2cccc(O)c2C(=O)C2=C(O)[C@]3(O)C(=O)C(C(N)=O)=C(O)[C@@H](N(C)C)[C@@H]3[C@@H](O)[C@@H]21` [Doxycycline] + CN[C@H](CC(C)C)C(=O)N[C@H]1C(=O)N[C@@H](CC(N)=O)C(=O)N[C@H]2C(=O)N[C@H]3C(=O)N[C@H](C(=O)N[C@H](C(=O)O)c4cc(O)cc(O)c4-c4cc3ccc4O)[C@H](O[C@H]3C[C@](C)(N)[C@@H](O)[C@H](C)O3)c3ccc(c(Cl)c3)Oc3cc2cc(c3O[C@@H]2O[C@H](CO)[C@@H](O)[C@H](O)[C@H]2O[C@H]2C[C@](C)(NCc3ccc(-c4ccc(Cl)cc4)cc3)[C@@H](O)[C@H](C)O2)Oc2ccc(cc2Cl)[C@H]1O [Oritavancin], the Bliss interaction score is 0.0456 in assay [1], 0.0145 in assay [2], -0.0271 in assay [3] and 0.0303 in assay [4].
On the same counts, the results for `C[C@H]1c2cccc(O)c2C(=O)C2=C(O)[C@]3(O)C(=O)C(C(N)=O)=C(O)[C@@H](N(C)C)[C@@H]3[C@@H](O)[C@@H]21` [Doxycycline] + CO[C@@]12[C@H](COC(N)=O)C3=C(C(=O)C(C)=C(N)C3=O)N1C[C@@H]1N[C@@H]12 [MitomycinC] are -0.0943, 0.0515, -0.0478 and 0.0704.
With `C[C@H]1c2cccc(O)c2C(=O)C2=C(O)[C@]3(O)C(=O)C(C(N)=O)=C(O)[C@@H](N(C)C)[C@@H]3[C@@H](O)[C@@H]21` [Doxycycline] + Oc1cc(Cl)ccc1Oc1ccc(Cl)cc1Cl [Triclosan], the Bliss interaction score is 0.0668 in assay [1], 0.0244 in assay [2], -0.0352 in assay [3] and -0.0554 in assay [4].
Consider `C[C@@H]1O[C@@H]1P(=O)(O)O` [Fosfomycin] + CC1(C)S[C@@H]2[C@H](NC(=O)Cc3ccccc3)C(=O)N2[C@H]1C(=O)O [PenicillinG], for which the Bliss interaction score was -0.0713 in assay [1], 0.0465 in assay [2], -0.136 in assay [3] and -0.0401 in assay [4].
On to `C[C@@H]1O[C@@H]1P(=O)(O)O` [Fosfomycin] + CC(=O)O[C@H]1C[C@@]2(C)[C@@H](C[C@@H](O)[C@H]3[C@@]4(C)CC[C@@H](O)[C@@H](C)[C@@H]4CC[C@@]32C)/C1=C(\CCC=C(C)C)C(=O)O [Fusidic acid], for which the Bliss interaction score was 0.0774 in assay [1], -0.0179 in assay [2], 0.0457 in assay [3] and 0.0895 in assay [4].
Turning to `C[C@@H]1O[C@@H]1P(=O)(O)O` [Fosfomycin] + CC[C@H]1OC(=O)[C@H](C)C(=O)[C@H](C)[C@@H](O[C@@H]2O[C@H](C)C[C@H](N(C)C)[C@H]2O)[C@](C)(OC)C[C@@H](C)C(=O)[C@H](C)[C@H]2N(CCCCn3cnc(-c4cccnc4)c3)C(=O)O[C@]12C [Telithromycin], the Bliss interaction score was -0.0329 in assay [1], -0.0576 in assay [2], 0.0337 in assay [3] and 0.0824 in assay [4].
On to `C[C@@H]1O[C@@H]1P(=O)(O)O` [Fosfomycin] + CN[C@H](CC(C)C)C(=O)N[C@H]1C(=O)N[C@@H](CC(N)=O)C(=O)N[C@H]2C(=O)N[C@H]3C(=O)N[C@H](C(=O)N[C@H](C(=O)O)c4cc(O)cc(O)c4-c4cc3ccc4O)[C@H](O[C@H]3C[C@](C)(N)[C@@H](O)[C@H](C)O3)c3ccc(c(Cl)c3)Oc3cc2cc(c3O[C@@H]2O[C@H](CO)[C@@H](O)[C@H](O)[C@H]2O[C@H]2C[C@](C)(NCc3ccc(-c4ccc(Cl)cc4)cc3)[C@@H](O)[C@H](C)O2)Oc2ccc(cc2Cl)[C@H]1O [Oritavancin], for which the Bliss interaction score is -0.0314 in assay [1], 0.0953 in assay [2], 0.0683 in assay [3] and 0.0255 in assay [4].
With `C[C@@H]1O[C@@H]1P(=O)(O)O` [Fosfomycin] + CO[C@@]12[C@H](COC(N)=O)C3=C(C(=O)C(C)=C(N)C3=O)N1C[C@@H]1N[C@@H]12 [MitomycinC], the Bliss interaction score in assay [1] is 0.117; in assay [2], -0.095; in assay [3] it was 0.0499; in assay [4], -0.116.
Turning to `C[C@@H]1O[C@@H]1P(=O)(O)O` [Fosfomycin] + Oc1cc(Cl)ccc1Oc1ccc(Cl)cc1Cl [Triclosan], the Bliss interaction score in assay [1] is 0.0597; in assay [2], 0.0573; in assay [3] it was 0.0662; in assay [4] it was -0.0701.
For the molecule `Cc1ncc([N+](=O)[O-])n1CCO` [Metronidazole] + CC1(C)S[C@@H]2[C@H](NC(=O)Cc3ccccc3)C(=O)N2[C@H]1C(=O)O [PenicillinG], the Bliss interaction score in assay [1] turned out to be 0.114; in assay [2], 0.0592; in assay [3], 0.0819; in assay [4] it was 0.0322.
